Test results: patent US11447504B2, “Macrocyclic chlorine substituted indole derivatives” (Bayer Aktiengesellschaft, priority 2017, dated 2022)
Where “and” joins values, the source holds several entries; their conditions need not be identical. Equal values may be shown once. Where a name gives a salt, the structure may show the parent alone. Read-outs that look alike come from different tables or passages of the source.

Legend:
SUDHL5 [1] = assay: Antiproliferation assay 7, SUDHL5; assay type: cell-based; conditions: SUDHL5 cells, CellTiter-Glo, read-out: Antiproli SUDHL5 IC50 (median)
In short: (§1)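 Plate cells in treatment and day 0 reference plates; read day 0 plate with CellTiter-Glo after 10 min; incubate treated plates 72 h at 37° C; read them identically.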

MV-4-11 = assay: Antiproliferation assay 7, MV-4-11; assay type: cell-based; conditions: Homo sapiens, MV4-11, 72 h, MV-4-11 cells, CellTiter-Glo, read-out: Antiproli MV-4-11 IC50 median
In short: as §1

AMO-1 = assay: Antiproliferation assay 7, AMO-1; assay type: cell-based; conditions: AMO-1 cells, CellTiter-Glo, read-out: Antiproli AMO-1 IC50 median
In short: as §1

SUDHL10 [2] = assay: Antiproliferation assay 7, SUDHL10; assay type: cell-based; conditions: SUDHL10 cells, CellTiter-Glo, read-out: Antiproli SUDHL10 IC50 (median)
Experimental: Assessment of the Anti-Proliferative Effect of Compounds in Different Cell Lines
The impact of compounds on the proliferation of different cell lines was assessed using the CellTiter-Glo® Luminescent Cell Viability reagent from Promega (G7573).
In parallel, cells were plated in a reference (day 0) plate for time zero determination.
Rim wells were excluded. The cells were incubated for 72 hours in a humidified incubator at 37° C. The day 0 plate was measured by adding 30 μL/well of CTG solution (CellTiter-Glo® Luminescent Cell Viability reagent, Promega G7573) to time zero wells in the reference plate followed by a 10 minutes incubation and luminescence reading at 0.1 ms. using the PHERAstar FS microplate reader (BMG Labtech).
After 72 hours incubation, the treated plates were measured in the same way as the day 0 plate mentioned above.

SUDHL10 [3] = assay: Induction of cytotoxicity (Assay 6), SUDHL10
SUDHL5 [4] = assay: Induction of caspase-3/7 activity (Assay 4), SUDHL5; assay type: cell-based; conditions: SUDHL5 cells
In short: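 DLBCL cells treated with compounds for 3 hours at 37° C. Caspase-3/7 activity measured by Caspase-Glo 3/7 luminescence, with medium-only background subtracted.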

SUDHL10 [5] = assay: Induction of caspase-3/7 activity (Assay 4), SUDHL10; assay type: cell-based; conditions: SUDHL10 cells
In short: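 Luminescent Caspase-Glo 3/7 read-out after a 3 h, 37 °C compound exposure of the DLBCL line SUDHL10. Values are background-corrected using medium-only wells.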

SUDHL5 [6] = assay: Induction of cytotoxicity (Assay 6), SUDHL5
Experimental: Assay 6 Induction of Cytotoxicity Upon Treatment of Cells with Selected Compounds
Therefore, cytotoxicity assays were run in parallel in SUDHL5 and SUDHL10 cells.
The different cell lines were plated in culture medium (RPMI 1640 [GIBCO #22400-089]supplemented with 10% Fetal Bovine Serum) at a density of 3,300 cells in 30 μL/well in a sterile, solid black, flat bottom, polystyrene, TC-treated 384-well microplate (Corning #3571) using Multidrop Combi Reagent Dispenser. As a control, medium without cells was also added to the plate. Cells were incubated in a humidified incubator at 37° C. overnight. […] Rim wells were excluded. The cells were incubated for 5 hours in a humidified incubator at 37° C. After this incubation, 30 μL of CellTiter-Glo® Luminescent Cell Viability reagent (Promega, G7573) was added to each well using the Multidrop Combi Reagent Dispenser, followed by 15 minutes incubation on a shaker at room temperature. Finally, luminescence was read at 0.1 ms, with a gain of 3000 using the PHERAstar FS microplate reader (BMG Labtech).

MCL-1 = MCL-1 (Homo sapiens (Human), UniProt Q07820, K194A/K197A/R201A); assay: Protein-protein interaction assay MCL-1/Noxa BH3 peptide (MCL-1 Assay, TR-FRET); assay type: binding; conditions: read-out: MCL-1 Assay IC50 (median)
Chain of MCL-1 (Q07820 whole entry K194A/K197A/R201A, looked up, the tested form may be a part): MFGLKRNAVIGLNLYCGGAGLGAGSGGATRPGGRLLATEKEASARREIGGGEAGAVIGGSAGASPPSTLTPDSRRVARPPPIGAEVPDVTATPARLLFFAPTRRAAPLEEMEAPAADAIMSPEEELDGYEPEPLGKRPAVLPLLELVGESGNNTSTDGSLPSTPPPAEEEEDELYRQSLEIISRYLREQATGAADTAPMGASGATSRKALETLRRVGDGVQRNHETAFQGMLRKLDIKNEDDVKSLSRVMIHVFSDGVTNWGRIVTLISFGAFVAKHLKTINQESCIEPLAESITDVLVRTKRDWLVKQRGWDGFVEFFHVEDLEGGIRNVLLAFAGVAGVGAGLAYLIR
Experimental: The dose-dependent inhibition by the compounds described in this invention of the interaction between MCL-1 and the BH3 domain of Noxa (both human) was determined using a steady state binding competition assay with time-resolved fluorescence energy transfer (TR-FRET) readout. […] The MBP-MCL-1 was purchased from Beryllium (Bedford, Mass., USA). The expression and purification of this protein construct has been described elsewhere (DOI:10.1371/journal.pone.0125010). The Noxa BH3-derived peptide can be obtained from e.g. Biosyntan (Berlin, Germany).
(§2) For that, 100-fold concentrated DMSO solutions were prepared by serial dilutions (1:3.4) of a 2 mM stock solution in a clear, 384-well microtiter plate (Greiner Bio-One, Frickenhausen, Germany). From there, 50 nl were transferred in a dark test plate (Greiner Bio-One, Frickenhausen, Germany). […] This was followed by a 10-minute incubation step at 22° C. for pre-equilibration of the putative complex between MBP-MCL-1 and the compounds.
(§3) The mixture was incubated in the dark for one hour at 22° C. and then overnight at 4° C.
(§4) The resulting data (ratio) were normalized, taking 0% inhibition as the mean value of control measurements (usually 32 data points) where all reagents were included. In this case 50 nl DMSO were used instead of compounds. […] IC50 values were determined by regression analysis based on a 4 parameter equation (minimum, maximum, IC50, Hill; Y=Max+(Min−Max)/(1+(X/IC50)^Hill) using the Screener Software (Genedata).

BCL-2 = BCL-2 (Homo sapiens (Human), UniProt P10415); assay: Protein-protein interaction assay BCL-2/Bad BH3 peptide (BCL-2 Assay, TR-FRET); assay type: binding; conditions: read-out: BCL-2 Assay IC50 (median)
Chain of BCL-2 (P10415 other isoform, or with tags, fused parts or gaps): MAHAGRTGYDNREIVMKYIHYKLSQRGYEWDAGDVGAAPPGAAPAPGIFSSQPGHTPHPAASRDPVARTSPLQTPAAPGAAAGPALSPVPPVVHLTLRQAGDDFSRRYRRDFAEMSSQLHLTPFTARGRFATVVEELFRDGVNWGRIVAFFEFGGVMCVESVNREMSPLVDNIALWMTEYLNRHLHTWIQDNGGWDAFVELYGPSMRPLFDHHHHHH
Experimental: The dose-dependent inhibition by the compounds described in this invention of the interaction between BCL-2 and the BH3 domain of Bad (both human) was determined using a steady state binding competition assay with time-resolved fluorescence energy transfer (TR-FRET) readout.
as §2, with “His-BCL-2” for “MBP-MCL-1”
as §3, §4

BCL-XL = BCL-XL (Homo sapiens (Human), UniProt Q07817); assay: Protein-protein interaction assay BCL-XL/Bad BH3 peptide (BCL-XL Assay, TR-FRET); assay type: binding; conditions: read-out: BCL-XL Assay IC50 (median)
Chain of BCL-XL (Q07817 other isoform, or with tags, fused parts or gaps): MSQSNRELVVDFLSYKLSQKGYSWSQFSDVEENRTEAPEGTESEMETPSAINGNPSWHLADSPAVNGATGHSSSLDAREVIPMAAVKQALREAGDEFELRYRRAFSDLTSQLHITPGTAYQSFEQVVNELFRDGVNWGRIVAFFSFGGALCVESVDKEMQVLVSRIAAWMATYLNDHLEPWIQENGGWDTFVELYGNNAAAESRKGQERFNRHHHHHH
Experimental: Assay 2 Protein-Protein Interaction Assay: BCL-XL/Bad BH3 Peptide (BCL-XL Assay)
The dose-dependent inhibition by the compounds described in this invention of the interaction between BCL-XL and the BH3 domain of Bad (both human) was determined using a steady state binding competition assay with time-resolved fluorescence energy transfer (TR-FRET) readout.
as §2, with “His-BCL-XL” for “MBP-MCL-1”
The mixture was incubated in the dark for one hour at 22° C. and then overnight at 4° C. The formation of BCL-XL/Bad complexes was determined by measuring the resonance energy transfer of the anti-His- Eu-cryptate antibody to the streptavidin-XL665 present in the reaction.
as §4

HMC-1-8 = assay: Antiproliferation assay 7, HMC-1-8; assay type: cell-based; conditions: HMC-1-8 cells, CellTiter-Glo, read-out: Antiproli HMC-1-8 IC50 median
In short: as §1

[7] = Homo sapiens, SU-DHL10, 5 h, read-out: Cytotox SUDHL10 IC50 (median), SUDHL10 cells, 5 hours, CellTiter-Glo
[8] = Homo sapiens, SU-DHL-5, 3 h, Caspase-Glo 3/7, read-out: Caspase SUDHL5 EC50 (median)
[9] = Homo sapiens, SU-DHL10, 3 h, Caspase-Glo 3/7, read-out: Caspase SUDHL10 EC50 (median)
[10] = Homo sapiens, SU-DHL-5, 5 h, read-out: Cytotox SUDHL5 IC50 (median), SUDHL5 cells, 5 hours, CellTiter-Glo
[11] = read-out: Cytotox SUDHL10 IC50 (median), SUDHL10 cells, 5 hours, CellTiter-Glo
[12] = 3 hours, Caspase-Glo 3/7, read-out: Caspase SUDHL5 EC50 (median)
[13] = 3 hours, Caspase-Glo 3/7, read-out: Caspase SUDHL10 EC50 (median)
[14] = read-out: Cytotox SUDHL5 IC50 (median), SUDHL5 cells, 5 hours, CellTiter-Glo

IC50 (BCL-2) | IC50 (BCL-XL) [nM] | IC50 (SUDHL5 [1]; 72 hours) [nM] | IC50 (SUDHL10 [2]; 72 hours) [nM] | EC50 (SUDHL5 [4]; [12]) [nM] | EC50 (SUDHL10 [5]; [13]) [nM] | SMILES | IC50 (SUDHL5 [1]; Homo sapiens, SU-DHL-5, 72 h) [nM] | IC50 (MV-4-11) [nM] | IC50 (AMO-1; Homo sapiens, AMO1, 72 h) [nM] | IC50 (SUDHL10 [2]; Homo sapiens, SU-DHL10, 72 h) [nM] | IC50 (SUDHL10 [3]; [7]) [nM] | EC50 (SUDHL5 [4]; [8]) [nM] | EC50 (SUDHL10 [5]; [9]) [nM] | IC50 (SUDHL5 [6]; [10]) [nM] | IC50 (MCL-1) [nM] | IC50 (HMC-1-8; 72 h) [nM] | IC50 (SUDHL10 [3]; [11]) [nM] | IC50 (SUDHL5 [6]; [14]) [nM] | IC50 (AMO-1; 72 hours) [nM] | IC50 (HMC-1-8; 72 hours) [nM]
 |  |  |  |  |  | CCc1c2c(nn1C)CN(C)CCCCn1c(C(=O)O)c(CCCOc3cccc4cc(F)ccc34)c3ccc(Cl)c-2c31 (racemic) [Example 5, (rac)-4-chloro-3-ethyl-7-{3-[(6-fluoronaphthalen-1-yl)oxy]propyl}-2,14-dimethyl-10,11,12,13,14,15-hexahydro-2H-pyrazolo[3′,4′:8,9][1,6]diazacycloundecino[10,11,1-hi]indole-8-carboxylic Acid] | 330 | 701 | 611 | 280 | 530 | 270 | 610 | 290 |  |  |  |  |  | 
 |  |  |  |  |  | Cc1c2c(nn1C)COCCCCn1c(C(=O)O)c(CCCOc3cccc4cc(F)ccc34)c3ccc(Cl)c-2c31 (racemic) [Example 14, (rac)-4-chloro-7-{3-[(6-fluoronaphthalen-1-yl)oxy]propyl}-2,3-dimethyl-2,10,11,12,13,15-hexahydropyrazolo[4′,3′:9,10][1,6]oxazacycloundecino[8,7,6-hi]indole-8-carboxylic Acid] | 510 | 1230 | 737 | 420 | 610 | 250 | 410 | 390 |  |  |  |  |  | 
> 20000 nM and 18700 nM and 20200 nM | > 20000 |  |  |  |  | CCc1c2c(nn1C)COC/C=C\Cn1c(C(=O)O)c(CCCOc3cccc4ccccc34)c3ccc(Cl)c-2c31 (racemic) [Example 18, (rac)-(11 Z)-4-chloro-3-ethyl-2-methyl-7-[3-(naphthalen-1-yloxy)propyl]-2,10,13,15-tetrahydropyrazolo[4′,3′:9,10][1,6]oxazacycloundecino[8,7,6-hi]indole-8-carboxylic Acid] | 1400 | 4710 |  |  | 1300 | 1100 | 1300 | 1200 | 1.3 |  |  |  |  | 
 |  |  |  |  |  | Cc1c2c(nn1C)CN(C)CCCCn1c(C(=O)O)c(CCCOc3cccc4cc(F)ccc34)c3ccc(Cl)c-2c31 (racemic) [Example 30, (rac)-4-chloro-7-{3-[(6-fluoronaphthalen-1-yl)oxy]propyl}-2,3,14-trimethyl-10,11,12,13,14,15-hexahydro-2H-pyrazolo[3′,4′:8,9][1,6]diazacycloundecino[10,11,1-hi]indole-8-carboxylic Acid] | 170 | 293 | 415 | 150 | 340 | 180 | 370 | 210 | 0.92 | 1560 |  |  |  | 
 |  | 13000 | 12000 | > 28000 | > 33000 | Cc1nn(C)c2c1-c1c(Cl)ccc3c(CCCOc4cccc5ccccc45)c(C(=O)O)n(c13)CCCCOC2 (single isomer, unassigned; enantiomer 2) [Example 4, 4-chloro-1,3-dimethyl-7-[3-(naphthalen-1-yloxy)propyl]-1,10,11,12,13,15-hexahydropyrazolo[4′,3′:9,10][1,6]oxazacycloundecino[8,7,6-hi]indole-8-carboxylic Acid (Enantiomer 2)] |  |  |  |  |  |  |  |  |  |  | > 33000 | 26000 |  | 
> 20000 nM | > 20000 | 3800 |  | 2800 | 5400 | CCc1c2c(nn1C)N(C)CCCCCn1c(C(=O)O)c(CCCOc3cccc4cc(F)ccc34)c3ccc(Cl)c-2c31 (single isomer, unassigned; enantiomer 2) [Example 79, 4-chloro-3-ethyl-7-{3-[(6-fluoronaphthalen-1-yl)oxy]propyl}-2,15-dimethyl-10,11,12,13,14,15-hexahydro-2H-pyrazolo[4′,3′:4,5][1,6]diazacycloundecino[3,2,1-hi]indole-8-carboxylic acid N-ethylethanamine Salt—Enantiomer 2] |  |  |  |  |  |  |  |  |  |  | 5100 | 2200 | 7400 | 14000
> 20000 nM | > 20000 | 4600 |  | 3200 | 6100 | Cc1c2c(nn1C)N(C)CCCCCn1c(C(=O)O)c(CCCOc3cccc4cc(F)ccc34)c3ccc(Cl)c-2c31 [Example 76, (−)-4-chloro-7-{3-[(6-fluoronaphthalen-1-yl)oxy]propyl}-2,3,15-trimethyl-10,11,12,13,14,15-hexahydro-2H-pyrazolo[4′,3′:4,5][1,6]diazacycloundecino[3,2,1-hi]indole-8-carboxylic acid-N-ethylethanamine salt] |  |  |  |  |  |  |  |  |  |  | 7000 | 3000 | 8600 | 13000
